In patent US20260137706A1, “METHODS OF TREATING INFLAMMATORY DISEASES” (INTERLINE THERAPEUTICS, INC., priority 2023, published 2026):
pIC50: −log10 of the molar value.

What was measured:
[1] = target: T1, binding of His-XIAP(BIR2)-avi fusion protein to GST-RIPK2 fusion protein (RIPK2/XIAP) (Homo sapiens, UniProt O43353); assay: RIPK2-XIAP binding competition PPI assay (TR-FRET); conditions: RIPK2/XIAP binding competition PPI assay; for Emax: Amax, read-out: PPI Amax bin; for pIC50: read-out: PPI IC50 bin
T1 construct: made in house; host or cells: baculovirus infected Sf9 cells
How it was run: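 Compounds (in DMSO, 100-fold stock) incubated 120 min at 23 °C with 1 nM GST-RIPK2 (aa 1-310) and 25 nM His-XIAP(BIR2 aa 152-231)-avi, plus anti-His-XL665 and anti-GST-Tb, in pH 7.5 Tris buffer. Read-out: 665/520 nm emission ratio. Normalized to no-inhibitor (0%) and 50 nM GSK583 (−100%); Amax binned A–D.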

[2] = target: T2, GST-RIPK2 fusion protein (human RIPK2, amino acids 1-310) (Homo sapiens, UniProt O43353); assay: RIPK2 binding competition assay (TR-FRET, Tracer 199 displacement); conditions: 10 nM Tracer 199, 1 nM GST-RIPK2, read-out: RIPK2 IC50
T2 construct: made in house; host or cells: baculovirus infected Sf9 cells
How it was run: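 IC50 derived from the TR-FRET emission ratio (665/620 nm, 337 nm excitation), normalized with no-inhibitor and no-enzyme controls. Incubation 45 min at 22 °C, pH 7.5 Tris buffer, with final 10 nM tracer, 1 nM Sf9-expressed GST-RIPK2 fragment (aa 1-310) and 0.5 nM Tb-labelled anti-GST.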

[3] = test system: NF-κB pathway (SEAP) in THP1-Dual cells; assay: THP-1 Dual cell SEAP assay (L18-MDP stimulated); type: cell-based; conditions: Homo sapiens, THP1-Dual, read-out: NF-κB THP1 IC50 bin
How it was run: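 IC50 values derive from non-linear regression of % inhibition, calculated against DMSO/L18-MDP-treated wells after media-only subtraction. NF-κB SEAP activity was read at OD 620-655 nm (QUANTI-Blue, 2 h, 37 °C) from supernatants of THP1-Dual cells. Cells had been compound-treated 30 min before overnight (20-24 h) stimulation with 10 ng/mL final L18-MDP.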

T1 sequence (O43353 1-310 limits assumed): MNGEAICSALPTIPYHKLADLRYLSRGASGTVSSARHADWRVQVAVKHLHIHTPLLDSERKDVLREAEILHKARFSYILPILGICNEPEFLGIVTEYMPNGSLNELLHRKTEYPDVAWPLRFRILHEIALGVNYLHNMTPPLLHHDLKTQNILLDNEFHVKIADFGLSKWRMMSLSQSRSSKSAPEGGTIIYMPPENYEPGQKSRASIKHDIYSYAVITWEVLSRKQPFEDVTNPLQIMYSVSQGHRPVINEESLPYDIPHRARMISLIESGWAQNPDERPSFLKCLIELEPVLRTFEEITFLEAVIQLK
T2 sequence (O43353 1-310): as the sequence (O43353 1-310 limits assumed) above

Compound	Emax [1] [%]	pIC50 [1]	pIC50 [2]	pIC50 [3]
CC(C)(C)S(=O)(=O)c1cn2c(-c3cc(F)c(N)nc3F)cnc2cc1OCCN1CC(O)C1 [Example 41, 1-(2-((3-(6-amino-2,5-difluoropyridin-3-yl)-6-(tert-butylsulfonyl)imidazo[1,2-a]pyridin-7-yl)oxy)ethyl)azetidin-3-ol]	> 80	7.70 to 8.60	7.70 to 8.60	< 6.00
COc1cc2ncc(-c3ccc4nc(N)[nH]c4c3)n2cc1S(=O)(=O)C(C)(C)C [Example 98, 6-(6-(tert-butylsulfonyl)-7-methoxyimidazo[1,2-a]pyridin-3-yl)-1H-benzo[d]imidazol-2-amine]	< 30	< 7.70	7.70 to 8.60	< 6.00
C[C@@H](CO)COc1cc2ncc(-c3cc(Cl)c(N)nc3F)n2cc1S(=O)(=O)C(C)(C)C [Example 201, (S)-3-((3-(6-amino-5-chloro-2-fluoropyridin-3-yl)-6-(tert-butylsulfonyl)imidazo [1,2-a]pyridin-7-yl)oxy)-2-methylpropan-1-ol]	> 80	8.60 to 9.00	8.60 to 9.00	6.60 to 7.30
C[C@H](CO)COc1cc2ncc(-c3cc(F)c(N)nc3F)n2cc1S(=O)(=O)C(C)(C)C [Example 176, (R)-3-((3-(6-amino-2,5-difluoropyridin-3-yl)-6-(tert-butylsulfonyl)imidazo[1,2-a]pyridin-7-yl)oxy)-2-methylpropan-1-ol]	> 80	8.60 to 9.00	8.60 to 9.00	6.60 to 7.30
COc1cc2ncc(-c3cc(NS(=O)(=O)c4cnn(C)c4)c(OC)c(OC)c3)n2cc1S(=O)(=O)C(C)(C)C [Example 244, N-(5-(6-(tert-butylsulfonyl)-7-methoxyimidazo[1,2-a]pyridin-3-yl)-2,3-dimethoxyphenyl)-1-methyl-1H-pyrazole-4-sulfonamide]	> 80	> 9.00	8.60 to 9.00	> 7.30
CC(C)(C)S(=O)(=O)c1cn2c(-c3cc(Cl)c(N)nc3F)cnc2cc1NCCO [Example 256, 2-((3-(6-amino-5-chloro-2-fluoropyridin-3-yl)-6-(tert-butylsulfonyl)imidazo [1,2-a]pyridin-7-yl)amino)ethan-1-ol]	> 80	> 9.00	8.60 to 9.00	> 7.30
CC(C)(C)S(=O)(=O)c1cn2c(-c3cc(F)c(N)nc3F)cnc2cc1OCC1COC1 [Example 32, 5-(6-(tert-butylsulfonyl)-7-(oxetan-3-ylmethoxy)imidazo[1,2-a]pyridin-3-yl)-3,6-difluoropyridin-2-amine]	> 80	7.70 to 8.60	8.60 to 9.00	6.60 to 7.30
COc1cc2ncc(-c3cnn4ccccc34)n2cc1S(=O)(=O)C(C)(C)C [Example 112, 6-(tert-butylsulfonyl)-7-methoxy-3-(pyrazolo[1,5-a]pyridin-3-yl)imidazo[1,2-a]pyridine]	< 30	< 7.70	< 7.70	< 6.00
COc1cc2ncc(-c3cc(F)c(OC)c(NC(=O)Cc4cnn(C)c4)c3)n2cc1S(=O)(=O)C(C)(C)C [Example 297, N-(5-(6-(tert-butylsulfonyl)-7-methoxyimidazo[1,2-a]pyridin-3-yl)-3-fluoro-2-methoxyphenyl)-2-(1-methyl-1H-pyrazol-4-yl)acetamide]	> 80	8.60 to 9.00	8.60 to 9.00	6.60 to 7.30
C[C@@H](O)COc1cn2ncc(-c3cc(F)c(N)nc3F)c2cc1S(=O)(=O)C(C)(C)C [Example 259, (R)-1-((3-(6-amino-2,5-difluoropyridin-3-yl)-5-(tert-butylsulfonyl)pyrazolo [1,5-a]pyridin-6-yl)oxy)propan-2-ol]	> 80	8.60 to 9.00	7.70 to 8.60	6.60 to 7.30
COc1cc2ncc(-c3cc(F)c(N)nc3F)n2cc1P1(=O)CCN(C)CC1 [Example 79, 4-(3-(6-amino-2,5-difluoropyridin-3-yl)-7-methoxyimidazo[1,2-a]pyridin-6-yl)-1-methyl-1,4-azaphosphinane 4-oxide]	> 80	< 7.70	< 7.70	< 6.00
C[C@H](CO)Oc1cc2ncc(-c3cc(Cl)c(N)nc3F)n2cc1S(=O)(=O)C(C)(C)C [Example 258, (R)-2-((3-(6-amino-5-chloro-2-fluoropyridin-3-yl)-6-(tert-butylsulfonyl)imidazo [1,2-a]pyridin-7-yl)oxy)propan-1-ol]	> 80	7.70 to 8.60	7.70 to 8.60	6.00 to 6.60
COc1cc2ncc(-c3cc(F)c(OC)c(NS(=O)(=O)c4cnn(CCO)c4)c3)n2cc1C(F)(F)F [Example 304, N-(3-fluoro-2-methoxy-5-(7-methoxy-6-(trifluoromethyl)imidazo[1,2-a]pyridin-3-yl)phenyl)-1-(2-hydroxyethyl)-1H-pyrazole-4-sulfonamide]	> 80	7.70 to 8.60	7.70 to 8.60	< 6.00
C[C@H](O)COc1cc2ncc(-c3cc(Cl)c(N)nc3F)n2cc1S(=O)(=O)C(C)(C)C [Example 169, (S)-1-((3-(6-amino-5-chloro-2-fluoropyridin-3-yl)-6-(tert-butylsulfonyl)imidazo[1,2-a]pyridin-7-yl)oxy)propan-2-ol]	> 80	8.60 to 9.00	8.60 to 9.00	6.60 to 7.30
CC(C)(C)S(=O)(=O)c1cn2c(-c3cc(F)c(N)nc3F)cnc2cc1OC1COC1 [Example 33, 5-(6-(tert-butylsulfonyl)-7-(oxetan-3-yloxy)imidazo[1,2-a]pyridin-3-yl)-3,6-difluoropyridin-2-amine]	> 80	7.70 to 8.60	7.70 to 8.60	< 6.00
COc1cc2ncc(-c3cc(C)c4nn(C)cc4c3)n2cc1S(=O)(=O)C(C)(C)C [Example 97, 5-(6-(tert-butylsulfonyl)-7-methoxyimidazo[1,2-a]pyridin-3-yl)-2,7-dimethyl-2H-indazole]	< 30	< 7.70	7.70 to 8.60	< 6.00
CC(C)(C)S(=O)(=O)c1cn2c(-c3cc(F)c(N)nc3F)cnc2cc1OCC(CO)C(F)(F)F (centres unmarked) [Example 57, 2-(((3-(6-amino-2,5-difluoropyridin-3-yl)-6-(tert-butylsulfonyl)imidazo[1,2-a]pyridin-7-yl)oxy)methyl)-3,3,3-trifluoropropan-1-ol]	> 80	7.70 to 8.60	7.70 to 8.60	6.00 to 6.60
CC(C)(C)S(=O)(=O)c1cc2c(-c3cc4cc[nH]c4nc3F)cnn2cc1OCCO [Example 215, 2-((5-(tert-butylsulfonyl)-3-(6-fluoro-1H-pyrrolo[2,3-b]pyridin-5-yl)pyrazolo[1,5-a]pyridin-6-yl)oxy)ethan-1-ol]	> 80	> 9.00	> 9.00	> 7.30
CC(CO)COc1cc2ncc(-c3cc(F)c(N)nc3F)n2cc1S(=O)(=O)C(C)(C)C (racemic) [Example 174, 3-((3-(6-amino-2,5-difluoropyridin-3-yl)-6-(tert-butylsulfonyl)imidazo[1,2-a]pyridin-7-yl)oxy)-2-methylpropan-1-ol]	> 80	8.60 to 9.00	8.60 to 9.00	6.60 to 7.30
COc1cc2ncc(-c3cc(F)c(OC)c4c3cnn4CCO)n2cc1S(=O)(=O)C(C)(C)C [Example 121, 2-(4-(6-(tert-butylsulfonyl)-7-methoxyimidazo[1,2-a]pyridin-3-yl)-6-fluoro-7-methoxy-1H-indazol-1-yl)ethan-1-ol]	55 to 80	< 7.70	< 7.70	< 6.00
C[C@@H](O)COc1cc2ncc(-c3ccc(N)nc3F)n2cc1S(=O)(=O)C(C)(C)C [Example 250, (R)-1-((3-(6-amino-2-fluoropyridin-3-yl)-6-(tert-butylsulfonyl)imidazo [1,2-a]pyridin-7-yl)oxy)propan-2-ol]	> 80	< 7.70	7.70 to 8.60	< 6.00
CC(C)(C)S(=O)(=O)c1cn2c(-c3cnc4[nH]ncc4c3)cnc2cc1OCCO [Example 222, 2-((6-(tert-butylsulfonyl)-3-(1H-pyrazolo[3,4-b]pyridin-5-yl)imidazo[1,2-a]pyridin-7-yl)oxy)ethan-1-ol]	< 30	< 7.70	7.70 to 8.60	< 6.00
COc1cc2ncc(-c3cnc4c(c3)OCCN4)n2cc1S(=O)(=O)C(C)(C)C [Example 84, 7-(6-(tert-butylsulfonyl)-7-methoxyimidazo[1,2-a]pyridin-3-yl)-3,4-dihydro-2H-pyrido[3,2-b][1,4]oxazine]	55 to 80	< 7.70	< 7.70	< 6.00
